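How tested: cells in 96-well plates exposed to compound for 48 hours at five concentrations. Definition used: TGI = concentration required for complete inhibition of growth.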

Among the test systems are ACHN renal; OVCAR-3 ovarian; SNB-75 CNS; UO-31 renal; UACC-62 melanoma; OVCAR-8 ovarian; NCI-H226 lung; COLO 205 colon; A549 NSCLC; HCT-15 colon; LOX IMVI melanoma; NCI-H522 lung; 786-0 renal; MALME-3M melanoma; SF-295 CNS; CCRF-CEM leukemia; NCI/ADR-RES ovarian; A498 renal; MDA-MB-435; BT-549 breast.
Holding throughout (assay): DTP human tumour cell line panel, 48 h

As for `Nc1ncnc2sc(Nc3ccccc3)nc12`, the TGI in the test with ACHN renal, in the test with OVCAR-3 ovarian, in the test on SNB-75 CNS, with UO-31 renal, in the test with UACC-62 melanoma and in the test with OVCAR-8 ovarian was over 100 µM in each case. Also, the total growth inhibition concentration (TGI) with NCI-H226 lung, in the test with COLO 205 colon, in the test on A549 NSCLC, in the test on HCT-15 colon, in the test with LOX IMVI melanoma and in the test on NCI-H522 lung was over 100 µM each time. Moreover, the TGI in the test on 786-0 renal, in the test with MALME-3M melanoma and with SF-295 CNS was over 100 µM throughout.
In the case of `Cn1c(=O)c(C(=O)NC23CC4CC(CC(C4)C2)C3)c(O)c2ccccc21`, the TGI with ACHN renal is 42.9 µM; in the test with OVCAR-3 ovarian, 63 µM; in the test with SNB-75 CNS, 83.8 µM; in the test with UO-31 renal, over 100 µM; in the test on UACC-62 melanoma it was over 100 µM; with OVCAR-8 ovarian it was 64.1 µM. The TGI in the test with CCRF-CEM leukemia is over 100 µM; with NCI-H226 lung, 48.4 µM; with COLO 205 colon, over 100 µM; in the test on A549 NSCLC it was over 100 µM; with HCT-15 colon it was over 100 µM; in the test on LOX IMVI melanoma, over 100 µM. For the same molecule, the TGI with NCI-H522 lung is over 100 µM; with 786-0 renal, 30.3 µM; in the test with MALME-3M melanoma, 44.7 µM; with SF-295 CNS, 57.4 µM.
Regarding `COC(=O)C1(Cc2ccccc2)Cc2c(C)ccc(C)c2C1=O` (configuration not stated), the TGI is over 100 µM in the test with ACHN renal; 85.1 µM with OVCAR-3 ovarian; 61.3 µM with SNB-75 CNS; 38 µM in the test on UO-31 renal; 54.8 µM with UACC-62 melanoma; over 100 µM in the test on NCI/ADR-RES ovarian. Further, the TGI is 52.1 µM in the test on OVCAR-8 ovarian; over 100 µM in the test on CCRF-CEM leukemia; over 100 µM in the test on A498 renal; 97.3 µM in the test with NCI-H226 lung; 25.4 µM in the test with COLO 205 colon; 36.4 µM with A549 NSCLC. The TGI with HCT-15 colon is over 100 µM; in the test with LOX IMVI melanoma, 34.6 µM; with NCI-H522 lung, 56.2 µM; in the test on 786-0 renal, over 100 µM; in the test with MALME-3M melanoma, 50.3 µM; in the test on MDA-MB-435, 43.4 µM. Further, the TGI in the test on SF-295 CNS is over 100 µM.
Regarding `CC(=O)Oc1ccc2cc(Oc3ccccc3)c(=O)oc2c1`, the TGI in the test on ACHN renal, in the test on OVCAR-3 ovarian, in the test on SNB-75 CNS, in the test with UO-31 renal, in the test on OVCAR-8 ovarian and in the test on A498 renal was over 100 µM throughout. The total growth inhibition concentration (TGI) in the test on NCI-H226 lung was over 100 µM; in the test with A549 NSCLC, over 100 µM; in the test on HCT-15 colon, over 100 µM; in the test with LOX IMVI melanoma, over 100 µM; in the test on NCI-H522 lung, 70.7 µM; in the test on 786-0 renal, over 100 µM. The concentration for total growth inhibition (TGI) in the test with MALME-3M melanoma, in the test on BT-549 breast and with SF-295 CNS was over 100 µM in each case.
On to `Nc1ncnc2c1ncn2CCOC(c1ccccc1)P(=O)(O)O` (configuration not stated), for which the TGI with ACHN renal, in the test on OVCAR-3 ovarian, with SNB-75 CNS, with UO-31 renal, in the test with UACC-62 melanoma and with OVCAR-8 ovarian was over 100 µM each time. The TGI with CCRF-CEM leukemia, in the test with A498 renal, with NCI-H226 lung, in the test on COLO 205 colon, in the test with A549 NSCLC and in the test with HCT-15 colon was over 100 µM in each case. Also, the TGI in the test on LOX IMVI melanoma, with NCI-H522 lung, in the test on 786-0 renal, in the test with MALME-3M melanoma and with SF-295 CNS was over 100 µM in each case.
As to `CSc1nc(C)cc(=O)n1C1OC(COC(C)=O)C(OC(C)=O)C(OC(C)=O)C1OC(C)=O` (configuration not stated), the TGI in the test on ACHN renal, with OVCAR-3 ovarian, with SNB-75 CNS, in the test with UO-31 renal, in the test with UACC-62 melanoma and in the test on OVCAR-8 ovarian was over 100 µM in each case. Further, the TGI with CCRF-CEM leukemia, with A498 renal, with NCI-H226 lung, in the test with COLO 205 colon, in the test with A549 NSCLC and in the test with HCT-15 colon was over 100 µM in each case. For the same molecule, the TGI in the test with LOX IMVI melanoma, in the test with NCI-H522 lung, in the test on 786-0 renal, in the test with MALME-3M melanoma and with SF-295 CNS was over 100 µM throughout.
As to `NC(N)=N/N=C\c1c(-c2ccccc2)nc2sccn12`, the TGI in the test on ACHN renal turned out to be 30.6 µM; with SNB-75 CNS, 24.8 µM; in the test with UO-31 renal it was 31.6 µM; in the test with UACC-62 melanoma it was 29.4 µM; in the test with NCI/ADR-RES ovarian it was 34.9 µM; with OVCAR-8 ovarian, 30.9 µM. Moreover, the TGI in the test on CCRF-CEM leukemia was 73.3 µM; in the test on A498 renal it was 33.6 µM; in the test with NCI-H226 lung it was 33.1 µM; with COLO 205 colon it was 24.6 µM; with A549 NSCLC, 31.8 µM; in the test with HCT-15 colon, 29.8 µM. Further, the total growth inhibition concentration (TGI) was 30.1 µM in the test with LOX IMVI melanoma; 24.6 µM in the test on NCI-H522 lung; 27.1 µM with 786-0 renal; 30 µM in the test with MALME-3M melanoma; 29.2 µM in the test on MDA-MB-435; 27.9 µM with SF-295 CNS.
In the case of `COc1ccc2nc(-c3ccc(O)cc3)ccc2c1`, the TGI in the test on ACHN renal, in the test with OVCAR-3 ovarian, in the test on SNB-75 CNS, in the test with UO-31 renal, in the test on UACC-62 melanoma and in the test with OVCAR-8 ovarian was over 100 µM in each case. Moreover, the TGI with CCRF-CEM leukemia, in the test on NCI-H226 lung, in the test with COLO 205 colon, in the test with A549 NSCLC, with LOX IMVI melanoma and with NCI-H522 lung was over 100 µM in each case. Moreover, the TGI with 786-0 renal, in the test on MALME-3M melanoma and with SF-295 CNS was over 100 µM throughout.
For the molecule `COC(=O)c1cc2ccccc2c2nc3ccccc3c(Cl)c12`, the TGI in the test with ACHN renal, in the test with OVCAR-3 ovarian, with SNB-75 CNS, with UACC-62 melanoma, in the test with OVCAR-8 ovarian and in the test with CCRF-CEM leukemia was over 100 µM throughout. Moreover, the TGI in the test with A498 renal, with COLO 205 colon, in the test with A549 NSCLC, with HCT-15 colon, with LOX IMVI melanoma and in the test on NCI-H522 lung was over 100 µM in each case. For the same molecule, the TGI with 786-0 renal, in the test with MALME-3M melanoma and in the test with SF-295 CNS was over 100 µM in each case.

Values taken from PubChem BioAssay (NCI).
